For 84 compounds, IC50 results are on record in the Kinase Knowledgebase extract (Sharma et al. 2016).

In this assay the target is PIK3CG (human) (UniProt P48736). Put plainly: Assessment of PIK3CG Kinase Activity.
Chain of PIK3CG (human) (P48736 whole entry, looked up): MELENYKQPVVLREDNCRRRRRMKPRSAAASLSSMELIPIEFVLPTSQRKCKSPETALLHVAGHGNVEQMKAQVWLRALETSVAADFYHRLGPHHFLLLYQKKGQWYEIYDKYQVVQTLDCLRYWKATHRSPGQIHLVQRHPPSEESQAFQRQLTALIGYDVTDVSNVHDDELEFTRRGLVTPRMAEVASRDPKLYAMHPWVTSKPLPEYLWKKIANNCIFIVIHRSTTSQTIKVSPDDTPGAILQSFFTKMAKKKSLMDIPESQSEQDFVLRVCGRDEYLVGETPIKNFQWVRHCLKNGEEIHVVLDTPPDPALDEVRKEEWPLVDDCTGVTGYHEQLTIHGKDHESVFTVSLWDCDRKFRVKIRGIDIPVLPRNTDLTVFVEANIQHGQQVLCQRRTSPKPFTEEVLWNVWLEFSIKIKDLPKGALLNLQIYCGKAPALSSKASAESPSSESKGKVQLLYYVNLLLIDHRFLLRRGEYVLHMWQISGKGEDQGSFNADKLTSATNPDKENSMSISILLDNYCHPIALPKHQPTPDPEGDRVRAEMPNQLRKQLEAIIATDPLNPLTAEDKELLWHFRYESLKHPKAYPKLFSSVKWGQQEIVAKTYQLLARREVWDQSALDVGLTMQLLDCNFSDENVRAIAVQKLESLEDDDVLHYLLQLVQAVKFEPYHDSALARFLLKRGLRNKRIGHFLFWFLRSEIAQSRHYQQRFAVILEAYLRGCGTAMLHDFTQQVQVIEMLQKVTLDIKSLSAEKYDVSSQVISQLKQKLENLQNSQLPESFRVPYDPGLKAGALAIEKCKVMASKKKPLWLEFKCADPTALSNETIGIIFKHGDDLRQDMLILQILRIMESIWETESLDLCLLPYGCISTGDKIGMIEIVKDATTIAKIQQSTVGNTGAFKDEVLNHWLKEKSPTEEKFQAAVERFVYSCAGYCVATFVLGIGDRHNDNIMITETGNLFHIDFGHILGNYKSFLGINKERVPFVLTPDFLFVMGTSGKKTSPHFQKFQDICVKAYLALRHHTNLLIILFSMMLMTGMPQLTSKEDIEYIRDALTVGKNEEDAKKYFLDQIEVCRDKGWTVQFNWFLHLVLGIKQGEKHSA

For orientation: IC50 means the concentration that inhibits the measured activity by half. High values mean weaker potency, low ones greater potency. `CC(=O)Nc1nc2c(s1)-c1c(cnn1-c1ccc(C(=O)N[C@@H](CC(=O)O)C(N)=O)cc1Cl)CC2` showed a 50% inhibitory concentration (IC50) of less than 800 nM. Then `CC(=O)Nc1nc2c(s1)-c1c(cnn1-c1cccc([N+](=O)[O-])c1)CC2`, with less than 800 nM; and `CC(=O)Nc1nc2c(s1)-c1nc(-c3ccc(C(=O)N(C)C)cc3)ncc1CC2`, with less than 800 nM. Under `COCc1nn(-c2ccc(C(=O)N(C)Cc3ccncc3)cc2Cl)c2c1CCc1nc(NC(C)=O)sc1-2` stands less than 800 nM; under `CC(=O)Nc1nc2c(s1)-c1c(cnn1-c1ccc(CC(=O)NCCC3CCCN3C)cc1)CC2` (centres undefined), less than 800 nM; under `CC(=O)Nc1nc2c(s1)-c1c(cnn1-c1ccc(C(=O)NCCN3CCOCC3)cc1)CC2`, less than 800 nM. Under `CC(=O)Nc1nc2c(s1)-c1c(c(-c3ccco3)nn1-c1ccc(C(=O)NC3CCN(C)CC3)cc1Cl)CC2` stands less than 800 nM. Compound `CC(=O)Nc1nc2c(s1)-c1c(cnn1-c1ccc(C(=O)N3CCC(N4CCOCC4)CC3)cc1)CC2` gave an IC50 of less than 800 nM. Then `CC(=O)Nc1nc2c(s1)-c1c(cnn1-c1ccccc1C)CC2`, with less than 800 nM.

On to `CC(=O)Nc1nc2c(s1)-c1c(cnn1-c1ccc3cn[nH]c3c1)CC2`, for which the IC50 was less than 800 nM. Under `CC(=O)Nc1nc2c(s1)-c1c(cnn1-c1ccc(Cl)cc1)C2` stands less than 800 nM; under `CC(=O)Nc1nc2c(s1)-c1c(cnn1-c1ccc(Br)cc1)CC2`, less than 800 nM. In turn, `CC(=O)Nc1nc2c(s1)-c1c(c(-c3c[nH]cn3)nn1-c1ccccc1C(F)(F)F)CC2` displayed an IC50 of less than 800 nM. Then `CCN(CCO)C(=O)c1nn(-c2ccccc2)c2c1CCc1nc(NC(C)=O)sc1-2`, with less than 800 nM; and `CC(=O)Nc1nc2c(s1)-c1c(c(C(C)C)nn1-c1ccc(C(=O)N[C@H]3CC[C@@H](N4CCCC4)CC3)cc1Cl)CC2`, with less than 800 nM. Then `CC(=O)Nc1nc2c(s1)-c1c(cnn1CCC(C)C)CC2`, with less than 800 nM. Then `CC(=O)Nc1nc2c(s1)-c1c(cnn1-c1ccc(C(=O)N[C@H]3CC[C@@H](N4C[C@@H](C)O[C@@H](C)C4)CC3)cc1)CC2`, with less than 800 nM; and `CC(=O)Nc1nc2c(s1)-c1c(cnn1-c1ccc(O)c(Cl)c1)CC2`, with less than 800 nM; and `CC(=O)Nc1nc2c(s1)-c1nc(-c3c(Cl)cccc3Cl)ncc1CC2`, with less than 800 nM.

In the case of `CC(=O)Nc1nc2c(s1)-c1nc(N3CCOCC3)ncc1CC2`, the half-inhibitory concentration (IC50) was less than 800 nM. In turn, `CC(=O)Nc1nc2c(s1)-c1c(cnn1-c1ccc(C(=O)N[C@H]3CC[C@@H](N4CCC(C)(C)CC4)CC3)cc1)CC2` showed an IC50 of less than 800 nM. Under `CC(=O)Nc1nc2c(s1)-c1c(cnn1-c1ccc(CC(=O)NCC(=O)N(C)C)cc1)CC2` stands less than 800 nM; under `O=C(Nc1nc2c(s1)-c1nc(-c3ccccc3)ncc1CC2)N1CCCCC1`, less than 800 nM; under `CC(=O)Nc1nc2c(s1)-c1c(cnn1-c1ccc(C(=O)N[C@@H](C(N)=O)[C@H](C)O)cc1Cl)CC2`, less than 800 nM. Under `COCc1nn(-c2ccccc2C(F)(F)F)c2c1CCc1nc(NC(C)=O)sc1-2` stands less than 800 nM; under `CCc1ccccc1-n1ncc2c1-c1sc(NC(C)=O)nc1CC2`, less than 800 nM. Under `COc1cccc(-c2ncc3c(n2)-c2sc(NC(C)=O)nc2CC3)c1` stands less than 800 nM; under `CC(=O)Nc1nc2c(s1)-c1c(c(-c3cn(C)cn3)nn1-c1ccccc1C)CC2`, less than 800 nM; under `CC(=O)Nc1nc2c(s1)-c1c(cnn1-c1ccc(C(=O)NC3CCC4(CC3)OCCO4)cc1)CC2`, less than 800 nM. The compound `CC(=O)Nc1nc2c(s1)-c1nn(C(N)=O)cc1CC2` had a 50% inhibitory concentration (IC50) of less than 800 nM. Then `CC(=O)Nc1nc2c(s1)-c1c(cnn1-c1c(Cl)cccc1Cl)CC2`, with less than 800 nM; and `CC(=O)Nc1nc2c(s1)-c1c(c(-c3ccoc3)nn1-c1ccc(Cl)cc1)CC2`, with less than 800 nM; and `COC(=O)c1nn(-c2ccc(C)cc2)c2c1CCc1nc(NC(C)=O)sc1-2`, with less than 800 nM. Under `CC(=O)Nc1nc2c(s1)-c1c(cnn1-c1ccc(CC(=O)O)cc1)CC2` stands less than 800 nM; under `CC(=O)Nc1nc2c(s1)-c1c(cnn1-c1ccc(C(=O)N[C@H]3CC[C@H](NC(=O)Cc4ccccc4)CC3)cc1)CC2`, less than 800 nM; under `Nc1ncc2c(n1)-c1sc(N)nc1CC2`, less than 800 nM.

The compound `CC(=O)Nc1nc2c(s1)-c1c(cnn1-c1ccc(CC(=O)NCc3cccc(C(N)=O)c3)cc1)CC2` came in with an IC50 of less than 800 nM. Then `CC(=O)Nc1nc2c(s1)-c1c(cnn1-c1ccc(C(=O)N[C@H]3CC[C@H](N4CCN(c5ccccc5)CC4)CC3)cc1)CC2`, with less than 800 nM. Under `CC(=O)Nc1nc2c(s1)-c1c(cnn1-c1ccccc1C(F)(F)F)CC2` stands less than 800 nM. Then `CC(=O)Nc1nc2c(s1)-c1c(cnn1-c1ccc(CC(=O)N3CCC(N4CCNC4=O)CC3)cc1)CC2`, with less than 800 nM; and `CC(=O)Nc1nc2c(s1)-c1nc(Cc3c(Cl)cccc3Cl)ncc1CC2`, with less than 800 nM. As for `CC(=O)Nc1nc2c(s1)-c1c(cnn1-c1ccc(CC(=O)Nc3cc(O)[nH]n3)cc1)CC2`, the IC50 was less than 800 nM. Then `CC(=O)Nc1nc2c(s1)-c1c(cnn1-c1ccc(CC(=O)N(C)CC(=O)N3CCOCC3)cc1)CC2`, with less than 800 nM.

Compound `CC(=O)Nc1nc2c(s1)-c1c(cnn1-c1ccc(CC(=O)NCc3cnn(C)c3)cc1)CC2` yielded an IC50 of less than 800 nM. Then `CC(=O)Nc1nc2c(s1)-c1c(cnn1-c1ccc(C(=O)N3CCCC(=O)CC3)cc1)CC2`, with less than 800 nM; and `CC(=O)Nc1nc2c(s1)-c1c(cnn1-c1ccc(C(=O)N[C@H]3CC[C@@H](N4CCCC4)CC3)cc1)CC2`, with less than 800 nM.

In turn, `CC(=O)Nc1nc2c(s1)-c1c(cnn1-c1ccccc1C(F)(F)F)C2` registered a concentration for half-maximal inhibition (IC50) of less than 800 nM. Under `CC(=O)Nc1nc2c(s1)-c1nn(C(=O)c3ccccc3)cc1CC2` stands less than 800 nM. In turn, `CC(=O)Nc1nc2c(s1)-c1c(c(NC(=O)NC(C)C)nn1-c1ccccc1Cl)CC2` came in with an IC50 of less than 800 nM. Under `Nc1nc2c(s1)-c1c(cnn1-c1ccc([N+](=O)[O-])cc1)CC2` stands less than 800 nM; under `CC(=O)Nc1nc2c(s1)-c1c(cnn1-c1ccc(C(=O)N3CCc4[nH]cnc4C3)cc1)CC2`, less than 800 nM; under `CC(=O)Nc1nc2c(s1)-c1nc(NC3CCN(C)CC3)ncc1CC2`, less than 800 nM. Under `CC(=O)Nc1nc2c(s1)-c1c(c([C@@H]3CCCO3)nn1-c1ccccc1Cl)CC2` stands less than 800 nM; under `CCN1CCCC(NC(=O)c2ccc(-n3ncc4c3-c3sc(NC(C)=O)nc3CC4)cc2)C1` (centres undefined), less than 800 nM.

Take `CC(=O)Nc1nc2c(s1)-c1nc(-c3ccccc3Cl)nc(O)c1CC2`: the IC50 was less than 800 nM. Under `COc1cc(-n2ncc3c2-c2sc(NC(C)=O)nc2CC3)nc(OC)n1` stands less than 800 nM. Under `CC(=O)Nc1nc2c(s1)-c1c(c(C)nn1-c1ccc(Cl)cc1)CC2` stands less than 800 nM.

For the compound `CC(=O)Nc1nc2c(s1)-c1c(cnn1-c1ccc(C(=O)NCc3ccccc3O)cc1)CC2`, the IC50 was less than 800 nM. The compound `CC(=O)Nc1nc2c(s1)-c1c(cnn1-c1ccc(C(=O)N[C@@H](Cc3cccc(Cl)c3)C(N)=O)cc1Cl)CC2` registered an IC50 of less than 800 nM.

As to `CC(=O)Nc1nc2c(s1)-c1c(cnn1-c1ccc(C(=O)NC3CCC(=O)O3)cc1)CC2` (centres undefined), the IC50 was less than 800 nM. Then `C#CCNc1ncc2c(n1)-c1sc(NC(C)=O)nc1CC2`, with less than 800 nM. Take `CC(=O)Nc1nc2c(s1)-c1c(cnn1-c1ccc(C(=O)N[C@@H](COCc3ccccc3)C(N)=O)cc1Cl)CC2`: the half-inhibitory concentration (IC50) was less than 800 nM. `CC(=O)Nc1nc2c(s1)-c1c(cnn1-c1ccc(C(=O)N(C)Cc3cnn(C)c3)cc1)CC2` yielded a half-inhibitory concentration (IC50) of less than 800 nM. Then `COC(=O)c1nn(-c2ccccc2C)c2c1CCc1nc(NC(C)=O)sc1-2`, with less than 800 nM; and `CC(=O)Nc1nc2c(s1)-c1nc(-c3ccccc3)ncc1CC2`, with less than 800 nM. Consider `CC(=O)Nc1nc2c(s1)-c1c(cnn1-c1ccc(C(=O)NC(CN3CCOCC3)CN3CCOCC3)cc1)CC2`, for which the half-maximal inhibitory concentration (IC50) was less than 800 nM. Then `CC(=O)Nc1nc2c(s1)-c1c(cnn1-c1ccc(C(=O)NCCN(C)C)cc1)CC2`, with less than 800 nM; and `CC(=O)Nc1nc2c(s1)-c1c(cnn1-c1ccc(C(=O)N3CCC(CO)CC3)cc1)CC2`, with less than 800 nM; and `CC(=O)Nc1nc2c(s1)-c1c(c(C(=O)N[C@@H]3CCOC3=O)nn1-c1ccccc1)CC2`, with less than 800 nM.

Regarding `CC(=O)Nc1nc2c(s1)-c1c(cnn1-c1ccc(CC(=O)NCC#Cc3ccncc3)cc1)CC2`, the IC50 was less than 800 nM. Under `C#CCN(C(=O)OC(C)(C)C)c1ncc2c(n1)-c1sc(NC(C)=O)nc1CC2` stands less than 800 nM; under `CC(=O)Nc1nc2c(s1)-c1c(cnn1-c1ccc(C(=O)N3CCCC3c3ccncc3)cc1)CC2` (centres undefined), less than 800 nM; under `CC(=O)Nc1nc2c(s1)-c1c(cnn1-c1ccc(CCNC(=O)c3ccccc3)cc1)CC2`, less than 800 nM. Under `CC(=O)Nc1nc2c(s1)-c1c(cnn1-c1ccc(C(=O)NCc3nc4ccccc4[nH]3)cc1)CC2` stands less than 800 nM; under `CC(=O)Nc1nc2c(s1)-c1c(c(C(C)C)nn1-c1ccc(C(=O)NC3CCN(C)CC3)cc1Cl)CC2`, less than 800 nM; under `CC(=O)Nc1nc2c(s1)-c1nc(N3CCC4(CN(C)C4)C3)ncc1CC2`, less than 800 nM. Then `CC(=O)Nc1nc2c(s1)-c1c(c(-c3ccccn3)nn1-c1ccccc1C)CC2`, with less than 800 nM.

In turn, `CCCCn1ncc2c1-c1sc(NC(C)=O)nc1CC2` displayed a 50% inhibitory concentration (IC50) of less than 800 nM.

`CC(=O)Nc1nc2c(s1)-c1c(cnn1-c1ccc(CC(=O)N3CCc4cn[nH]c4C3)cc1)CC2` yielded an IC50 of less than 800 nM. In the case of `CC(=O)Nc1nc2c(s1)-c1c(cnn1-c1ccc(C(=O)N3C[C@@H](C)O[C@@H](C)C3)cc1)CC2`, the IC50 was less than 800 nM. In turn, `C#Cc1nn(-c2ccccc2C(F)(F)F)c2c1CCc1nc(NC(C)=O)sc1-2` returned an IC50 of less than 800 nM. Under `CCN(CC)CC1CCCCN1C(=O)c1ccc(-n2ncc3c2-c2sc(NC(C)=O)nc2CC3)cc1` (centres undefined) stands less than 800 nM; under `CC(=O)Nc1nc2c(s1)-c1c(cnn1-c1ccc(C(=O)NCc3ncc[nH]3)cc1)CC2`, less than 800 nM. Then `CCN1CCCC(NC(=O)Cc2ccc(-n3ncc4c3-c3sc(NC(C)=O)nc3CC4)cc2)C1` (centres undefined), with less than 800 nM.
